Measurements taken from patent publication US20140315972A1, “RS)-2-(2-oxo-4-phenylpyrrolidin-1-yl)acetamide compound having modulatory activity with a commensurate effect, pharmaceutical substance (variants) and its application, composition (variants) thereof” (priority 2011, published 2014).
Where “and” joins values, the source holds several entries; their conditions need not be identical. Equal values may be shown once. Read-outs that look alike come from different tables or passages of the source. Marks after values point to notes of the source that are not given here.

Legend:
[1] = tested on: rats; assay: Forced swimming with freely rotating wheels by Nomura; format: in vivo; settings: rat pups
Experimental: The antidepressant effect of Phenotropil was studied in adult rats (185-218 g) and rat pups of 28-35 days of age (85-110 g). The test drugs were injected intraperitoneally in the first case and intragastrically in the second case 40 min before the tests. The methods of behavioral despair during forced swimming (Porsolt et al., 1978) and forced swimming with freely rotating wheels (Nomura et al., 1982) were used.
In the study of depression by Porsolt, no significant differences between the effective doses were found (Table 10), while according to the method of Nomura this difference is statistically significant. At a dose of 100 mg/kg, the efficacy of Phenotropil as compared to the control, was 59.0%. At a dose of 200 mg/kg it was +30.0% in comparison with the control group (Table 10.1). […] The effect of Phenotropil was investigated by the method of Nomura also in mature outbred rats (185-218 g).

[2] = tested on: rats; assay: Anti-ulcerogenic action under Ds-conditions; format: in vivo; settings: listed as Phenotropil
[3] = tested on: patients; assay: Amenorrhea in patients on neuroleptic therapy; format: in vivo, human; settings: tablets 100 or 200 mg per day, 3 months
Experimental: Investigation of the effect of Phenotropil in amenorrhea and functional dysmenorrhea was conducted on groups of patients aged 14-27 years. The first group (20-27 years) diagnosed with schizophrenia, was on the maintenance neuroleptic therapy and had menstrual cycle irregularities in the form of amenorrhea (for more than 6 months). Of those, 4 had amenorrhea of not established nature, observed also prior to the pronounced primary manifestation of mental disorder, 6 patients had amenorrhea that developed during treatment with neuroleptics. Phenotropil, tablets was administered in doses of 100 mg and 200 mg per day as part of a complex antipsychotic therapy as a corrector of psychogenic side effects of neuroleptics. The dose was selected based on the individual and clinical features of the patients. The duration of Phenotropil therapy was 3 months. Two groups (14-18 years) with functional dysmenorrhea and manifestations of pronounced spastic symptoms were studied. Duration of the Phenotropil monotherapy (50 and 100 mg per day) was one month followed by administration of the drug at one-week courses as a preventive agent. Patients with functional dysmenorrhea were investigated for cAMP level in comparison with the norm control group. The cAMP level was determined using the standard kits, by the method based on the competition with the labeled cyclic 3′,5-adenosine monophosphate in the level of binding with […].

[4] = tested on: mice; assay: Acute toxicity, single intraperitoneal injection in male mice; format: in vivo; settings: male mice 18-24 g; single i.p.
Experimental: Tables 2, 2.1 and 2.2 present the results of acute toxicity studies of the Compounds with active substance content in at least white outbred male mice (body weight 18-24 g) and white outbred rats 30-35 days of age, of both sexes with a single dose. Calculation of toxic doses was made using the Wilcoxon and Litchfield method. Observations were made over 24 hours and 14 days after a single dose.
LD50 in rat pups after intragastric administration was not found. Intragastric administration to rat pups of doses of more than 1000 mg/kg is technically impossible due to the small volume of the stomach (Table 2.2).

[5] = tested on: mice; format: in vivo; settings: for Mortality: mice
Experimental: Chemical convulsive agents (bicuculline, corazol, thiosemicarbazide, and picrotoxin) and the maximum electroconvulsive shock (ECS) model in the experiment the different types of seizures with their various implementation mechanisms of pathological conditions. The anticonvulsant activity of Phenotropil after a single dose for all the investigated models manifests in a pronounced positive effect on prevention of mortality in the studied doses of 100, 300, 400, 600 mg/kg. In case of bicuculline-induced seizures, mortality in the control group was 70.0%. Phenotropil (100, 300, 600 mg/kg) was effective in 100% of cases. The metrazole-induced mortality in the control was 60.0% and the positive effect of Phenotropil for mortality vs control was 45-35-0%, depending on the dose, respectively. The thiosemicarbazide-induced mortality was 90.0% in the control group, while when treated with Phenotropil (100, 300, 600 mg/kg), respectively: 60-0-0%. […] In case of MES, mortality in the control group was 100.0%, while in the Phenotropil groups (100, 300, 400 mg/kg) it was 20-0-0%, respectively. […] The anticonvulsant effect of Phenotropil prevents the development of seizures and affects the outcome of convulsive states, preventing mortality in all applied models of seizures in animals. The mechanisms of action of anticonvulsant activity of Phenotropil are probably also commensurate, various and depend on the initial state.

[6] = tested on: male subjects; assay: Anti-seasick (anti-kinetosis) activity, visual-vestibular effects; format: in vivo, human
Experimental: Investigations of the anti-seasick (anti-kinetosis) activity of agents with creation of visual-vestibular effects modeling motion sickness were performed on male subjects (23-35 years). Test with continuous exposure to the Coriolis acceleration was performed by rotating vestibulometric chair with angular velocity 180°/s. The eyes of the subject were open, while the optokinetic drum rotated in one direction with the chair with a speed of 90°/s. The time of visual-vestibular effect, vestibulo-vegetative reactions, optokinetic nystagmus before and after kinesia was determined when the drum rotated alternately for two minutes in the R- and S-directions at a speed of 90° s, with a break for 1 minute between rotations, as well as the severity of vestibular effects was measured and the Km was calculated. The studies were conducted 60 minutes after administration of Phenotropil in doses of 25, 50, 100 and 300 mg. Baseline state values and placebo values served as control. Alternate approaches for each participant were performed a week after each previous test. The modulation factor under normal conditions without exposure was 0.97.

[7] = male subjects, 25, 50, 100, 300 mg

NC(=O)CN1CC(c2ccccc2)CC1=O (racemic) [Compound 1, (RS)-2-(2-oxo-4-phenylpyrrolidine-1-yl)acetamide] was tested, and the Number of revolutions ([1]; 100 mg/kg) was 175.4 ± 22.98, the Number of revolutions ([1]; 200 mg/kg) was 143.4 ± 33.14 and the “ulcer number vs control (100)” value ([2]; 25 mg/kg + 5.0% glucose solution, 25 mg/kg) was −45% and −42 * %. The “ulcer number vs control (100)” value ([2]; 50 mg/kg + 5.0% glucose solution, 50 mg/kg) was −63% and −63 * %, the “ulcer number vs control (100)” value ([2]; 100 mg/kg + 5.0% glucose solution, 100 mg/kg) was −80% and −80 * % and the “patients restored, amenorrhea of unknown nature” value [3] was 30.0%. For the same molecule, the “patients restored, amenorrhea on antipsychotic therapy” value [3] was 40.0%, the “patients with restored menstruations and menstrual cycle” value ([3]; n=10) was 70% and the LD50 [4] was 1042 (982.9-1102.0) mg/kg. For the same molecule, the “effective against mortality, % of cases” value ([5]; bicuculline-induced seizures, 100, 300, 600 mg/kg) was 100%, the Mortality ([5]; Bicuculline 3.0 mg/kg + 100.0 mg/kg) was 0* % and the Mortality ([5]; Bicuculline 3.0 mg/kg + 300.0 mg/kg) was 0* %. For the same molecule, the Mortality ([5]; Corazol 110.0 mg/kg + 100.0 mg/kg, listed as Phenotropil) was 45%, the Mortality ([5]; Corazol 110.0 mg/kg + 300.0 mg/kg, listed as Phenotropil) was 35% and the Mortality ([5]; Corazol 110.0 mg/kg + 600.0 mg/kg, listed as Phenotropil) was 0%. The Mortality ([5]; MES + 100.0 mg/kg, listed as Phenotropil, 100 mg/kg) was 20%, the Mortality ([5]; MES + 300.0 mg/kg, listed as Phenotropil, 300 mg/kg) was 0% and the Mortality ([5]; MES + 400.0 mg/kg, listed as Phenotropil, 400 mg/kg) was 0%. The Mortality ([5]; Thiosemicarbazide 18.0 mg/kg + 100.0 mg/kg, listed as Phenotropil) was 60%, the Mortality ([5]; Thiosemicarbazide 18.0 mg/kg + 300.0 mg/kg, listed as Phenotropil) was 0% and the Mortality ([5]; Thiosemicarbazide 18.0 mg/kg + 600.0 mg/kg, listed as Phenotropil) was 0%. For the same molecule, the “NEE, negative effects of exposure” value ([6]; humans, 25-300 mg) was 22.5 ± 7.5 min, the “VVE, tolerability of the visual-vestibular effects” value ([6]; humans, 25-300 mg) was 7.70 ± 0.6 min and the “VVR, severity of the vestibulo-vegetative reactions” value ([6]; humans, 25-300 mg) was 2.3 ± 0.9 points. For the same molecule, the “improvement of visual-vestibular tolerability vs placebo, average” value [6, 7] was “+80%”, the “reduction in severity of vestibulo-vegetative reactions vs placebo, average” value [6, 7] was 68% and the “duration of negative consequences condition” value ([6]; male subjects, placebo 4-6 hours) was 15 to 30 min.
